The results in this text go back to paper PMC11224359, “Stable peptide-assembled nanozyme mimicking dual antifungal actions” (Nature Communications, 2024).

Data set [1] can be described thus: Variable temperature circular dichroism. In kind it is physicochemical. Here is the method: The Ultraviolet-visible (UV-VIS) spectroscopy of samples were collected by a Shimadzu UV-3600. For FTIR, 3 mg of powdered sample and 50 mg of potassium bromide (KBr) were mixed for tablet compression analysis with transmittance at 400–4000 cm^−1, collected using an iS10 FTIR spectrometer (USA). Measurements were performed by averaging 32 scans at 4-cm^−1 resolution (signal-to-noise ratio (S/N) = 50,000). The single-molecule STM imaging experiments were performed under ambient conditions by using a Nanoscope IIIa SPM system (Bruker, USA). 10 μL of the peptide solution was incubated on the surface of freshly cleaved highly oriented pyrolytic graphite (HOPG) at room temperature for 20 min. Then the excess peptide solution was removed from the substrate surface. The STM tips were mechanically made by Ir/Pt wires (20/80). Different STM tips and samples were used in these imaging experiments to ensure reproducibility. […] Zeta potentials of samples were determined using a Zetasizer Nano ZS90 (England) via three tests in a 1-mL sample cell. All CD datum were collected using Chirascan Plus (England) and analyzed at 190-260 nm. […] Pyridine infrared (IR) were measured at 1400–1700 cm^−1 using Thermo Scientific Nicolet 380 (USA). […] The fluorescence signals (I374nm, I394nm) were collected for detecting CMC using the pyrene probe under excitation at 330 nm across various concentrations of peptides.
For orientation: Circular dichroism is the unequal absorption of left and right circularly polarised light.

A short description of data set [2]: Peptide self-assembly morphology by TEM. The format is physicochemical. Here is the method:
Powders of each of the peptides were dissolved in 1.5 mM Ni(Ac)2 solution to a certain concentration range (e.g. 0.0–1.5 mM) and sonicated for a period of time, and were then allowed to cool gradually to 25 °C overnight. Aged samples could be left at room temperature for more than 90 days.
TEM images were recorded using a JEM1200EX (JEOL) (Japan) operating at 100 kV dropped on a double copper net. Typically, 1.5 mM samples are diluted 10-fold and stained with 3% uranyl acetate for viewing. For AFM, liquid Ni-IH-7 ([…]) was dropped on a mica sheet and observed by Bruker Dension Icon (Germany). The AMFM data were fitted using the Analyze panel module in Igor Pro software to obtain a modulus curve, yielding the average Young’s modulus. Simultaneously, we utilized the Hertz model force curve fitting results to validate the reliability of the Young’s modulus. Cryo-EM and two-dimensional classification data of Ni-IH-7 were collected by Talos Arctica 200 kV FEG (USA). AMFM was tested using Cypher S (USA) in the presence of AC160TS-R3 (probe). Samples were diluted 50 times and dried on mica flakes. KPFM was tested using Cypher S (USA) and obtain the Contact potential difference. The standard highly oriented pyrolytic graphite was 675 mV. HAADF-STEM was obtained by JEM ARM 200 F (accelerating voltage: 200 kV) (JEOL, Japan).

Consider IHIHICI [Ni-IH-7], for which the “thermal stability of conformation” value in data set [1] is “retained β-sheet conformation”. Also, the “resistance to enzymatic degradation by snailase” value in the data set on snailase is listed as “considerable resistance to enzymatic degradation”. Further, the “resistance to enzymatic degradation by neutral protease” value with neutral protease is listed as “considerable resistance to enzymatic degradation”. Besides, in the data set with lyticase, the “resistance to enzymatic degradation by lyticase” value is listed as “considerable resistance to enzymatic degradation”.

Turning to ICICICI [heptapeptide ICICICI], the assembly into nanostructure result in data set [2] is “could not form typical nanostructure”.
